Source: ChEMBL document CHEMBL5512637, “Development of Membrane-Targeting Fluorescent 2-Phenyl-1H-phenanthro[9,10-d]imidazole-Antimicrobial Peptide Mimic Conjugates against Methicillin-Resistant Staphylococcus aureus” (J Med Chem, 2024)
The source made the active and inactive calls. No cut-off for these calls is given here.

How the values were obtained:
[1] = Stability in sheep plasma at MBC measured for 6 hrs; assay type: ADME, cell-free, Ovis aries
Staphylococcus aureus [2] = experiment: Antibacterial activity against methicillin-resistant Staphylococcus aureus clinical isolate M-1 incubated for 16 to 18 hrs CLSI based by microbroth dilution assay; assay type: functional; details: time 16-18 hrs
Staphylococcus aureus [3] = experiment: Antibacterial activity against methicillin-resistant Staphylococcus aureus clinical isolate M-9 incubated for 16 to 18 hrs CLSI based by microbroth dilution assay; assay type: functional; details: time 16-18 hrs
Staphylococcus aureus [4] = experiment: Bactericidal activity against methicillin-resistant Staphylococcus aureus clinical isolate M-4 at 4 to 8 times MIC by time kill assay; assay type: functional, organism-based; details: TDE = time-dependent effect
Staphylococcus aureus [5] = experiment: Bactericidal activity against Staphylococcus aureus ATCC 29213 by time kill assay; assay type: functional, organism-based
[6] = Toxicity in KM mouse assessed as survival rate at 5 to 80 mg/kg, sc measured for 24 hrs; assay type: organism-based; details: in vivo, dose 5-80 mg/kg
[7] = Cytotoxicity against human L02 cells assessed as cell survival at 32 ug/ml by MTT assay relative to control; assay type: toxicity, cell-based; details: at 32 µg/mL, read-out: Survival
Staphylococcus aureus [8] = experiment: Antibacterial activity against methicillin-resistant Staphylococcus aureus clinical isolate M-4 incubated for 16 to 18 hrs CLSI based by microbroth dilution assay; assay type: functional; details: time 16-18 hrs
[9] = Toxicity in KM mouse assessed as change in hemoglobin level at 20 mg/kg, sc measured after 24 hrs; assay type: organism-based; details: in vivo
Staphylococcus aureus [10] = experiment: Disruption of cell membrane in methicillin-resistant Staphylococcus aureus clinical isolate M-4 assessed as increase in red fluorescence at 32 ug/ml incubated for 2 hrs by SYTO9/PI staining based flow cytometry relative to control; assay type: functional; details: dose 32 µg/ml
[11] = Selectivity index, ratio of HC50 for sheep erythrocytes to MIC for Staphylococcus aureus ATCC 29213; assay type: toxicity; details: read-out: Selectivity Index
[12] = Toxicity in KM mouse assessed as red swollen appearance of skin at administration site at 40 to 80 mg/kg, sc measured for 24 hrs; assay type: organism-based; details: in vivo, dose 40-80 mg/kg
[13] = Toxicity in KM mouse assessed as red swollen appearance of skin at administration site at 5 to 20 mg/kg, sc measured for 24 hrs; assay type: organism-based; details: in vivo, dose 5-20 mg/kg
[14] = Binding affinity to phosphatidylglycerol (unknown origin) assessed as dissociation constant by ITC analysis
Staphylococcus aureus [15] = experiment: Antibacterial activity against Staphylococcus aureus ATCC 29213 at 1 ug/ml in absence of exogenous DNA; assay type: functional, organism-based; details: dose 1.0 µg/ml
Staphylococcus aureus [16] = experiment: Bactericidal activity against methicillin-resistant Staphylococcus aureus clinical isolate M-4 at 4 times MIC incubated for 6 hrs by time kill assay relative to control; assay type: functional
Staphylococcus aureus [17] = experiment: Antibacterial activity against methicillin-resistant Staphylococcus aureus clinical isolate M-8 incubated for 16 to 18 hrs CLSI based by microbroth dilution assay; assay type: functional; details: time 16-18 hrs
Staphylococcus aureus [18] = experiment: Bactericidal activity against Staphylococcus aureus ATCC 29213 assessed as fold increase in fluorescence intensity at MIC incubated for 180 mins relative to control; assay type: functional; details: 3 h
[19] = Toxicity in KM mouse infected with methicillin-resistant Staphylococcus aureus clinical isolate M-4 assessed as histopathological abnormality in liver at 5 to 10 mg/kg, sc measured after 24 hrs by H and E staining based analysis; assay type: organism-based; details: in vivo, dose 5-10 mg/kg
Staphylococcus aureus [20] = experiment: Antibacterial activity against methicillin-resistant Staphylococcus aureus clinical isolate M-4 infected in KM mouse assessed as decrease in abnormality in skin area at 10 mg/kg, sc measured after 24 hrs by H and E staining based analysis; assay type: functional, organism-based
[21] = Toxicity in KM mouse assessed as histological abnormality in spleen at 20 mg/kg, sc measured after 24 hrs by H and E staining based analysis; assay type: organism-based; details: in vivo
Staphylococcus aureus [22] = experiment: Antibacterial activity against methicillin-resistant Staphylococcus aureus clinical isolate M-2 incubated for 16 to 18 hrs CLSI based by microbroth dilution assay; assay type: functional; details: time 16-18 hrs
Staphylococcus aureus [23] = experiment: Antibacterial activity against Staphylococcus aureus ATCC 29213 at 1 ug/ml in presence of exogenous DNA; assay type: functional, organism-based; details: dose 1.0 µg/ml
Staphylococcus aureus [24] = experiment: Bactericidal activity against Staphylococcus aureus ATCC 29213 at 4 times MIC incubated for 2 hrs by time kill assay relative to control; assay type: functional
[25] = Hemolytic activity in sheep erythrocytes incubated for 1 hr by absorbance based assay; assay type: toxicity, cell-based, Ovis aries, Erythrocyte
[26] = Toxicity in KM mouse assessed as change in RBC count at 20 mg/kg, sc measured after 24 hrs; assay type: organism-based, Erythrocyte; details: in vivo
Staphylococcus aureus [27] = experiment: Disruption of cell membrane in methicillin-resistant Staphylococcus aureus clinical isolate M-4 assessed as increase in intracellular ROS level incubated for 1 hr by DCFH-DA dye based analysis; assay type: functional, organism-based; details: dose 1-32 µg/ml
Staphylococcus aureus [28] = experiment: Disruption of cell membrane in methicillin-resistant Staphylococcus aureus clinical isolate M-4 assessed as protein leakage at 1 to 8 times MIC incubated for 4 hrs by BCA assay; assay type: functional, organism-based
Staphylococcus aureus [29] = experiment: Antibacterial activity against methicillin-resistant Staphylococcus aureus clinical isolate M-4 infected in KM mouse assessed as survival rate of bacteria at 10 mg/kg, sc measured after 24 hrs relative to control; assay type: functional
[30] = Toxicity in KM mouse assessed as change in urea level at 20 mg/kg, sc measured after 24 hrs; assay type: organism-based; details: in vivo
Staphylococcus aureus [31] = experiment: Antibacterial activity against Staphylococcus aureus ATCC 29213 incubated for 16 to 18 hrs CLSI based by microbroth dilution assay; assay type: functional; details: time 16-18 hrs
[32] = Toxicity in KM mouse assessed as change in hematocrit level at 20 mg/kg, sc measured after 24 hrs; assay type: organism-based; details: in vivo
Staphylococcus aureus [33] = experiment: Antibacterial activity against methicillin-resistant Staphylococcus aureus clinical isolate M-4 infected in KM mouse assessed as decrease in erythema in subcutaneous tissue at 5 to 10 mg/kg, sc measured after 24 hrs by H and E staining based analysis; assay type: functional, organism-based; details: dose 5-10 mg/kg
Staphylococcus aureus [34] = experiment: Antibacterial activity against methicillin-resistant Staphylococcus aureus clinical isolate M-7 incubated for 16 to 18 hrs CLSI based by microbroth dilution assay; assay type: functional; details: time 16-18 hrs
[35] = Toxicity in KM mouse assessed as histological abnormality in kidney at 20 mg/kg, sc measured after 24 hrs by H and E staining based analysis; assay type: organism-based; details: in vivo
[36] = Cytotoxicity against human L02 cells assessed as cell survival at 16 ug/ml by MTT assay relative to control; assay type: toxicity, cell-based; details: at 16 µg/mL, read-out: Survival
Staphylococcus aureus [37] = experiment: Disruption of cell membrane in methicillin-resistant Staphylococcus aureus clinical isolate M-4 assessed as fold increase in fluorescence intensity at 32 ug/ml measured after 20 mins by DiSC3(5) dye based analysis relative to control; assay type: functional; details: dose 32 µg/ml
Staphylococcus aureus [38] = experiment: Antibacterial activity against methicillin-resistant Staphylococcus aureus clinical isolate M-4 upto 128 ug/ml incubated for 16 to 18 hrs in presence of peptidoglycan by broth dilution method; assay type: functional, organism-based; details: dose <= 128.0 µg/ml, time 16-18 hrs
Staphylococcus aureus [39] = experiment: Bactericidal activity against Staphylococcus aureus ATCC 29213 at 8 times MIC incubated for 1 hr by time kill assay relative to control; assay type: functional
Staphylococcus aureus [40] = experiment: Disruption of cell membrane in methicillin-resistant Staphylococcus aureus clinical isolate M-4 assessed as increase in red fluorescence at 4 ug/ml incubated for 4 hrs by DAPI/PI staining based laser confocal microscopy; assay type: functional, organism-based; details: dose 4.0 µg/ml

Compound: CCCCCNC(=O)C[N+](C)(C)CCCCn1c(-c2ccc(N(C)C)cc2)nc2c3ccccc3c3ccccc3c21.[Br-]
- Stability [1]: Stable
- MIC (Staphylococcus aureus [2]): 2 µg/mL
- MIC (Staphylococcus aureus [3]): 0.5 µg/mL
- Activity (Staphylococcus aureus [4]): Tde
- Activity (Staphylococcus aureus [5]): Dose-Dependent Effect
- survival at 24 h [6]: 100%
- viability at 32 ug/ml [7]: > 72.2%
- MIC (Staphylococcus aureus [8]): 0.5 µg/mL
- Activity [9]: Non-Toxic
- Activity (Staphylococcus aureus [10]): 99.34%
- selectivity ratio [11]: 859
- Activity [12]: Toxic
- Activity [13]: Non-Toxic
- Kd [14]: 39.8 µM
- Activity (Staphylococcus aureus [15]): Active
- Activity (Staphylococcus aureus [16]): 100%
- MIC (Staphylococcus aureus [17]): 0.5 µg/mL
- fold change (FC) (Staphylococcus aureus [18]): ~1.9
- Activity [19]: Non-Toxic
- Activity (Staphylococcus aureus [20]): Active
- Activity [21]: Non-Toxic
- MIC (Staphylococcus aureus [22]): 1 µg/mL
- Activity (Staphylococcus aureus [23]): Active
- Activity (Staphylococcus aureus [24]): 100%
- HC50 at 1 h [25]: 859 µg/mL
- Activity [26]: Non-Toxic
- Activity (Staphylococcus aureus [27]): Dose-Dependent Effect
- Activity (Staphylococcus aureus [28]): Active
- survival at 10 mg/kg (Staphylococcus aureus [29]): 0.01%
- Activity [30]: Non-Toxic
- MIC (Staphylococcus aureus [31]): 1 µg/mL
- Activity [32]: Non-Toxic
- Activity (Staphylococcus aureus [33]): Active
- MIC (Staphylococcus aureus [34]): 0.5 µg/mL
- Activity [35]: Non-Toxic
- viability at 16 ug/ml [36]: 100%
- fold change (FC) (Staphylococcus aureus [37]): ~5
- Activity (Staphylococcus aureus [38]): Active
- Activity (Staphylococcus aureus [39]): 100%
- Activity (Staphylococcus aureus [40]): Active
